Source: patent US10167262B2, “Herbicidal substituted 3-arylpyrazoles” (FMC CORPORATION, priority 2014, dated 2019)
Like-named read-outs stand apart in the source and are kept apart here.

Key:
Assay type in all cases: in vivo
[1] = system: Italian ryegrass (Lolium multiflorum); experiment: Test C pre-/postemergence greenhouse test, plant response rating 0-100; conditions: Lolium multiflorum; for pest or weed control at 62 g/ha: 62 g ai/ha; for pest or weed control at 125 g/ha: 125 g ai/ha; for pest or weed control at 250 g/ha: 250 g ai/ha; for pest or weed control at 500 g/ha: 500 g ai/ha
Outline: (§1)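 Formulated in solvent with surfactant, test chemicals were sprayed on seeded loam/sand pots and, concurrently, on young plants 2–18 cm tall. Evaluation: visual, versus controls, day 13–15.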

corn (Zea mays) = experiment: as above; conditions: Zea mays; for Corn plant response rating (crop injury, 0 = no effect, 100 = complete kill) at 250 g/ha: 250 g ai/ha; for Corn plant response rating (crop injury, 0 = no effect, 100 = complete kill) at 500 g/ha: 500 g ai/ha
Outline: as §1

[2] = system: galium (catchweed bedstraw, Galium aparine); experiment: as above; conditions: Galium; for pest or weed control at 62 g/ha: 62 g ai/ha; for pest or weed control at 125 g/ha: 125 g ai/ha; for pest or weed control at 250 g/ha: 250 g ai/ha; for pest or weed control at 500 g/ha: 500 g ai/ha
Outline: as §1

[3] = system: giant foxtail (Setaria faberii); experiment: as above; conditions: Setaria faberi; for pest or weed control at 62 g/ha: 62 g ai/ha; for pest or weed control at 125 g/ha: 125 g ai/ha; for pest or weed control at 250 g/ha: 250 g ai/ha; for pest or weed control at 500 g/ha: 500 g ai/ha
Outline: as §1

[4] = system: johnsongrass (Sorghum halepense); experiment: as above; conditions: Sorghum halepense; for pest or weed control at 62 g/ha: 62 g ai/ha; for pest or weed control at 125 g/ha: 125 g ai/ha; for pest or weed control at 250 g/ha: 250 g ai/ha; for pest or weed control at 500 g/ha: 500 g ai/ha
Outline: as §1

[5] = system: lambsquarters (Chenopodium album); experiment: as above; conditions: Chenopodium album; for pest or weed control at 62 g/ha: 62 g ai/ha; for pest or weed control at 125 g/ha: 125 g ai/ha; for pest or weed control at 250 g/ha: 250 g ai/ha; for pest or weed control at 500 g/ha: 500 g ai/ha
Outline: as §1

[6] = system: pigweed (Amaranthus retroflexus); experiment: as above; conditions: Amaranthus retroflexus; for pest or weed control at 62 g/ha: 62 g ai/ha; for pest or weed control at 125 g/ha: 125 g ai/ha; for pest or weed control at 250 g/ha: 250 g ai/ha; for pest or weed control at 500 g/ha: 500 g ai/ha
Outline: as §1

soybean (Glycine max) = experiment: as above; conditions: Glycine max; for plant injury at 62 g/ha: 62 g ai/ha; for plant injury at 125 g/ha: 125 g ai/ha; for plant injury at 250 g/ha: 250 g ai/ha; for plant injury at 500 g/ha: 500 g ai/ha
Outline: as §1

[7] = system: winter wheat (Triticum aestivum); experiment: as above; conditions: Triticum aestivum; for plant injury at 62 g/ha: 62 g ai/ha; for plant injury at 125 g/ha: 125 g ai/ha; for plant injury at 250 g/ha: 250 g ai/ha; for plant injury at 500 g/ha: 500 g ai/ha
Outline: as §1

[8] = system: yellow nutsedge (Cyperus esculentus); experiment: as above; conditions: Cyperus; for pest or weed control at 62 g/ha: 62 g ai/ha; for pest or weed control at 125 g/ha: 125 g ai/ha; for pest or weed control at 250 g/ha: 250 g ai/ha; for pest or weed control at 500 g/ha: 500 g ai/ha
Outline: as §1

[9] = system: chickweed (common chickweed, Stellaria media); experiment: Test C postemergence greenhouse test, plant response rating 0-100; conditions: Stellaria media, post-emergence
Outline: (§2)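 Postemergence spray of formulated test chemicals on plants 2 to 18 cm tall (1- to 4-leaf stage) grown in peat/vermiculite medium. Greenhouse hold 13 to 15 days, then visual comparison with untreated controls on a 0-100 scale (0 no effect, 100 complete control); dash means no test result.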

kochia (Kochia scoparia) = experiment: as above; conditions: Bassia scoparia, post-emergence
Outline: as §2

wild oat (Avena fatua) = experiment: as above; conditions: Avena fatua, post-emergence
Outline: as §2

[10] = post-emergence, Postemergence, read-out: Plant response rating (0 to 100), Ryegrass, Italian
[11] = post-emergence, Postemergence, scale 0 to 100
[12] = pre-emergence, Preemergence, read-out: Plant response rating, Ryegrass, Italian
[13] = post-emergence, Postemergence, read-out: Plant response rating (0 to 100), Galium
[14] = pre-emergence, Preemergence, read-out: Plant response rating, Galium
[15] = post-emergence, Postemergence, read-out: Plant response rating (0 to 100), Foxtail, Giant
[16] = pre-emergence, Preemergence, read-out: Plant response rating, Foxtail, Giant
[17] = post-emergence, Postemergence, read-out: Plant response rating (0 to 100), Johnsongrass
[18] = pre-emergence, Preemergence, read-out: Plant response rating, Johnsongrass
[19] = post-emergence, Postemergence, read-out: Plant response rating (0 to 100), Lambsquarters
[20] = pre-emergence, Preemergence, read-out: Plant response rating, Lambsquarters
[21] = post-emergence, Postemergence, read-out: Plant response rating (0 to 100), Pigweed
[22] = pre-emergence, Preemergence, read-out: Plant response rating, Pigweed
[23] = post-emergence, Postemergence, read-out: Plant response rating (0 to 100), Soybean
[24] = pre-emergence, Preemergence, read-out: Plant response rating, Soybean
[25] = post-emergence, Postemergence, read-out: Plant response rating (0 to 100), Wheat
[26] = pre-emergence, Preemergence, read-out: Plant response rating, Wheat
[27] = post-emergence, Postemergence, read-out: Plant response rating (0 to 100), Nutsedge, Yellow
[28] = pre-emergence, Preemergence, read-out: Plant response rating, Nutsedge, Yellow

## CCOC(OCC)(c1ccccc1)c1c[nH]nc1-c1cc(Cl)cc(Cl)c1 [Compound 14, 3-(3,5-dichlorophenyl)-4-(diethoxyphenylmethyl)-1H-pyrazole]
[1]; [10]
  pest or weed control at 62 g/ha: 0%
  pest or weed control at 125 g/ha: 0%
[1]; [11]
  pest or weed control at 250 g/ha: 0%
  pest or weed control at 500 g/ha: 5%
[1]; [12]
  pest or weed control at 62 g/ha: 0%
  pest or weed control at 125 g/ha: 0%
[1]; pre-emergence, Preemergence
  pest or weed control at 250 g/ha: 0%
  pest or weed control at 500 g/ha: 0%
Corn (Zea mays); post-emergence, Postemergence, 62 g ai/ha
  plant injury at 62 g/ha: 0%
Corn (Zea mays); post-emergence, Postemergence, 125 g ai/ha
  plant injury at 125 g/ha: 0%
Corn (Zea mays); [11]
  Corn plant response rating (crop injury, 0 = no effect, 100 = complete kill) at 250 g/ha: 5%
  Corn plant response rating (crop injury, 0 = no effect, 100 = complete kill) at 500 g/ha: 5%
Corn (Zea mays); pre-emergence, Preemergence, 62 g ai/ha
  Corn plant response rating (crop injury, 0 = no effect, 100 = complete kill) at 62 g/ha: 0%
Corn (Zea mays); pre-emergence, Preemergence, 125 g ai/ha
  Corn plant response rating (crop injury, 0 = no effect, 100 = complete kill) at 125 g/ha: 0%
Corn (Zea mays); pre-emergence, Preemergence
  Corn plant response rating (crop injury, 0 = no effect, 100 = complete kill) at 250 g/ha: 0%
  Corn plant response rating (crop injury, 0 = no effect, 100 = complete kill) at 500 g/ha: 0%
[2]; [13]
  pest or weed control at 62 g/ha: 0%
  pest or weed control at 125 g/ha: 30%
[2]; [11]
  pest or weed control at 250 g/ha: 50%
  pest or weed control at 500 g/ha: 45%
[2]; [14]
  pest or weed control at 62 g/ha: 0%
  pest or weed control at 125 g/ha: 60%
[2]; pre-emergence, Preemergence
  pest or weed control at 250 g/ha: 80%
  pest or weed control at 500 g/ha: 0%
[3]; [15]
  pest or weed control at 62 g/ha: 0%
  pest or weed control at 125 g/ha: 0%
[3]; [11]
  pest or weed control at 250 g/ha: 0%
  pest or weed control at 500 g/ha: 0%
[3]; [16]
  pest or weed control at 62 g/ha: 0%
  pest or weed control at 125 g/ha: 0%
[3]; pre-emergence, Preemergence
  pest or weed control at 250 g/ha: 0%
  pest or weed control at 500 g/ha: 0%
[4]; [17]
  pest or weed control at 62 g/ha: 0%
  pest or weed control at 125 g/ha: 0%
[4]; [11]
  pest or weed control at 250 g/ha: 0%
  pest or weed control at 500 g/ha: 0%
[4]; [18]
  pest or weed control at 62 g/ha: 0%
  pest or weed control at 125 g/ha: 0%
[4]; pre-emergence, Preemergence
  pest or weed control at 250 g/ha: 0%
  pest or weed control at 500 g/ha: 0%
[5]; [19]
  pest or weed control at 62 g/ha: 70%
  pest or weed control at 125 g/ha: 95%
[5]; [11]
  pest or weed control at 250 g/ha: 100%
  pest or weed control at 500 g/ha: 100%
[5]; [20]
  pest or weed control at 62 g/ha: 100%
  pest or weed control at 125 g/ha: 100%
[5]; pre-emergence, Preemergence
  pest or weed control at 250 g/ha: 100%
  pest or weed control at 500 g/ha: 100%
[6]; [21]
  pest or weed control at 62 g/ha: 85%
  pest or weed control at 125 g/ha: 98%
[6]; [11]
  pest or weed control at 250 g/ha: 100%
  pest or weed control at 500 g/ha: 100%
[6]; [22]
  pest or weed control at 62 g/ha: 98%
  pest or weed control at 125 g/ha: 100%
[6]; pre-emergence, Preemergence
  pest or weed control at 250 g/ha: 100%
  pest or weed control at 500 g/ha: 100%
Soybean (Glycine max); [23]
  plant injury at 62 g/ha: 0%
  plant injury at 125 g/ha: 0%
Soybean (Glycine max); [11]
  plant injury at 250 g/ha: 0%
  plant injury at 500 g/ha: 0%
Soybean (Glycine max); [24]
  plant injury at 62 g/ha: 0%
  plant injury at 125 g/ha: 35%
Soybean (Glycine max); pre-emergence, Preemergence
  plant injury at 250 g/ha: 40%
  plant injury at 500 g/ha: 10%
[7]; [25]
  plant injury at 62 g/ha: 0%
  plant injury at 125 g/ha: 0%
[7]; [11]
  plant injury at 250 g/ha: 0%
  plant injury at 500 g/ha: 5%
[7]; [26]
  plant injury at 62 g/ha: 0%
  plant injury at 125 g/ha: 0%
[7]; pre-emergence, Preemergence
  plant injury at 250 g/ha: 0%
  plant injury at 500 g/ha: 0%
[8]; [27]
  pest or weed control at 62 g/ha: 0%
  pest or weed control at 125 g/ha: 0%
[8]; [11]
  pest or weed control at 250 g/ha: 0%
  pest or weed control at 500 g/ha: 0%
[8]; [28]
  pest or weed control at 62 g/ha: 0%
  pest or weed control at 125 g/ha: 0%
[8]; pre-emergence, Preemergence
  pest or weed control at 250 g/ha: 0%
  pest or weed control at 500 g/ha: 0%
[9]; 62 g ai/ha
  pest or weed control at 62 g/ha: 90%
[9]; 125 g ai/ha
  pest or weed control at 125 g/ha: 100%
[9]; 250 g ai/ha, scale 0 to 100
  pest or weed control at 250 g/ha: 100%
[9]; 500 g ai/ha, scale 0 to 100
  pest or weed control at 500 g/ha: 95%
Kochia (Kochia scoparia); 62 g ai/ha
  pest or weed control at 62 g/ha: 85%
Kochia (Kochia scoparia); 125 g ai/ha
  pest or weed control at 125 g/ha: 90%
Kochia (Kochia scoparia); 250 g ai/ha, scale 0 to 100
  pest or weed control at 250 g/ha: 90%
Kochia (Kochia scoparia); 500 g ai/ha, scale 0 to 100
  pest or weed control at 500 g/ha: 90%
Wild oat (Avena fatua); 62 g ai/ha
  pest or weed control at 62 g/ha: 0%
Wild oat (Avena fatua); 125 g ai/ha
  pest or weed control at 125 g/ha: 0%
Wild oat (Avena fatua); 250 g ai/ha, scale 0 to 100
  pest or weed control at 250 g/ha: 0%
Wild oat (Avena fatua); 500 g ai/ha, scale 0 to 100
  pest or weed control at 500 g/ha: 5%
